Biological target: T1, ISG20L2 (interferon-stimulated 20 kDa exonuclease-like 2) (Homo sapiens, UniProt Q9H9L3)
T1 construct: recombinant human ISG20L2 (rISG)
T1 sequence (Q9H9L3 1-353): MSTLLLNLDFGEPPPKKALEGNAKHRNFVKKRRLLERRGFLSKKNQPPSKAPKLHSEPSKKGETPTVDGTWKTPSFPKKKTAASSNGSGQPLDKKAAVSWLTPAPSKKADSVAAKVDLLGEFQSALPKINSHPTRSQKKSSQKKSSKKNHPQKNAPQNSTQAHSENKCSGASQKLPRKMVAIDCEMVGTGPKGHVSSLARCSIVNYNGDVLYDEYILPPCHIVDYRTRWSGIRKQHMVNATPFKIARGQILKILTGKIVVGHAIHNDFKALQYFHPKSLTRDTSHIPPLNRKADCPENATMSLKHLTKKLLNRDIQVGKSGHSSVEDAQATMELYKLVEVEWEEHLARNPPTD
Assay: SPR (Biacore X100, ISG20L2 immobilized on CM5 chip)
Type: binding

Structure (SMILES) | Kd
CC(C)C[C@H](NC(=O)[C@H](Cc1ccccc1)NC(=O)c1cnccn1)B(O)O [BTZ, bortezomib] | 26.7 µM
CC(C)C[C@H](NC(=O)[C@H](CCc1ccccc1)NC(=O)CN1CCOCC1)C(=O)N[C@@H](Cc1ccccc1)C(=O)N[C@@H](CC(C)C)C(=O)[C@@]1(C)CO1 [CFZ, carfilzomib] | 8.71 µM

Reference: paper PMC9675441 (JCI Insight, 2022)
